“Also recorded” adds a separate entry of the source.
Legend:
[1] = Comparative iron release profile, simulated gastrointestinal conditions, ICP-OES; type: physicochemical; conditions: sample equivalent to 30 mg elemental iron, HCl 0.1N then pH 6.8, 37°C
Description: The release profile and bioavailability of the composition according to the invention were analysed and measured by comparison with iron sulphate (the preferred form for pharmacological treatment) using an in vitro system, under conditions simulating the gastrointestinal environment.
The tests were conducted according to methods published in the international scientific literature and internally validated.
For the measurement of the comparative release profile, amounts of the two test samples were first weighed, both equivalent to 30 mg of elemental iron. The samples were initially placed in contact with a solution of HCl (0.1N) and incubated at a temperature of 37±0.5° C. A solution of Na2HPO4 was then added to the samples to buffer the pH to a value of 6.8. Said conditions were maintained throughout the remainder of the experiment. To evaluate the release profile of the iron, the two samples were centrifuged at 10,000 rpm at pre-set time intervals such as 1, 2, 4, 6 and 24 h. At the end of centrifugation the samples were taken up and analysed to evaluate the iron release profiles. The iron determination analyses were conducted with the ICP-OES THERMO FISHER ICAP 6300.

[2] = In vitro bioavailability study, dialysis membrane method with simulated buccal, gastric and intestinal digestion; type: in vitro ADME
Description: The in vitro bioavailability study was conducted by the dialysis membrane method. Said method, by its nature, is based on the physicochemical characteristics of the environments wherein the desired substance passes from one compartment to the other, and takes no account of any active mechanisms or biological interaction. The method involves three successive simulated digestion stages: buccal digestion in the presence of amylase, gastric digestion in the presence of pepsin, and finally, intestinal digestion in the presence of pancreatin.
In order to simulate buccal digestion, suitable amounts of the test samples were placed in contact with 10 mg of amylase and 1.5 mL of PBS at pH 6.9 (10^-3 M). The resulting mixtures were inserted into dialysis membranes (Spectrum Laboratories Inc., USA, MWCO: 12-14,000 Daltons), tightly closed at each end and immersed in vials containing PBS at pH 6.9. The samples were then incubated at a temperature of 37±0.5° C. for 5 minutes.
After incubation, HCl (0.85N), pepsin and a solution of NaN3 (0.04% w/w) were added to the open membranes. The membranes were closed, placed in vials containing HCl (0.85N), and incubated at 37±0.5° C. for 2 h.
After said 2 h period, a solution of NaHCO3 (0.8 M) and pancreatin was added. The closed membranes were placed in vials containing PBS at pH 7.0, and incubated at a temperature of 37±0.5° C. for a further 4 h.
To evaluate the in vitro bioavailability of the iron, the solution contained in the vials was taken up after each digestion step, and the samples were analysed with an ICP-OES THERMO FISHER ICAP 6300.
Bioavailability is defined as the percentage of iron recovered in the bioaccessible fraction after in vitro digestion, in relation to the original undigested sample, and calculated with the equation: (bioaccessible fraction/total content)×100%.

[3] = Evaluation of organoleptic characteristics of the granulate vs iron fumarate (Example II); type: in vivo, human; conditions: score 1 (intolerable) to 5 (highly tolerable); one score per participant, 4 subjects; amount equivalent to 14 mg elemental iron
Description: A portion of the granulate described in Example I and a portion of commercially available iron fumarate, both equivalent to 14 mg of elemental iron (100% of Nutrient Reference Value—EU Reg. 1169/2011) were weighed separately using known procedures.
The following trial protocol was used to evaluate the organoleptic characteristics of the two samples compared.
Each of the compositions listed in Table II above was tested on a group of 4 subjects. The inclusion criteria for admission to the test were solely ethical: the subjects had to be over the age of majority, healthy, and not suffering from any taste and/or iron metabolism alterations correlated with disorders and/or illnesses.
Each subject independently tasted first one and then the other sample of the example, maintaining a suitable time interval (at least 2 hours) between one tasting and the next, and rinsing their mouth, so that the evaluation of each administration was not influenced by the previous one.
On each tasting, the following parameters were evaluated: metallic odour and flavour, gastrointestinal tolerability, aftertaste, and staining of teeth, tongue and/or palate. […]

[4] = in words; cited from earlier work
[5] = in words; cited from earlier work; remark: listed apart in the source

Compound | Iron released ([1]; 1 h) | Iron released ([1]; 2 h) | Iron released ([1]; 4 h) | Bioaccessible fraction, buccal digestion ([2]; amylase, PBS pH 6.9, 37°C, 5 minutes) | Bioaccessible fraction, intestinal digestion ([2]; pancreatin, NaHCO3, PBS pH 7.0, 37°C, 4 h) | Bioaccessible fraction, gastric digestion ([2]; pepsin, HCl 0.85N, 37°C, 2 h) | Gastrointestinal tolerability [3] | Water solubility compared with iron sulphate [4] | Iron release compared with iron sulphate [5]
O=S(=O)([O-])[O-].[Fe+2] [Ferrous sulphate] | 84.16 ± 1.07 | 85.22 ± 0.98 | 100.03 ± 0.20 | 8.61 ± 0.73 | 7.16 ± 0.41 | 65.81 ± 1.39 |  |  | 
O=C([O-])/C=C/C(=O)[O-].[Fe+2] [Sample B, Iron fumarate] |  |  |  |  |  |  | Gastrointestinal tolerability: 5; also recorded: Gastrointestinal tolerability: 3 | far less water-soluble than iron sulphate | generically lower iron release than iron sulphate

Reference: patent US20230329308A1, “COMPOSITIONS COMPRISING A MINERAL SALT FOR ORAL USE” (DIFASS INTERNATIONAL S.P.A., priority 2020, published 2023)
